The source of these data is patent EP4491190A1, “SMALL PROTEINS FOR USE AS SENOLYTIC AND SENOMORPHIC AGENTS” (Fundación Imdea Alimentación, priority 2023, dated 2025).

pEC50: −log10 of the molar value.

Holding throughout (format): cell-based, human
Experiment [1] concerns SKMel-103, A549, Huh7, SH-SY5Y cells. As to the kind of experiment: MTT cell viability in different models of cellular senescence and cancer cell lines. Conditions: senescent cancerous cell lines, senescence by doxorubicin, bleomycin or palbociclib. How it is done:
(§1) Cells were plated in 96 well plates at a density of 3×10^3-8×10^3 cells/well (proliferative) or 8×10^3-10×10^3 cells/well (senescent). An MTT assay (Sigma-Aldrich, Merck KGaA, Darmstadt, Germany) was used to measure cell viability after 48-96 h of treatments. Briefly, MTT was diluted in 0.1 M phosphate buffered saline (PBS) and added to cells grown in 96-well plates at a final concentration of 0.5 mg/ml. After incubation for 2-4 hr at 37°C with MTT, the culture medium was removed. The precipitated formazan was solubilized with dimethyl sulfoxide (DMSO). Absorbance was measured at 570 nm using a microplate reader (Victor Nivo; Perkin Elmer, Hamburg, Germany). For these assays, the effects of vehicle or treatments were expressed as the % of change of the non-treated cells.
Next, it was evaluated the senolytic capacity of Tvs1 in different models of cellular senescence and cancer cell lines. For that purpose, chemotherapy known to induce cellular senescence by genotoxic damage (doxorubicin and bleomycin) or by inhibiting cyclin-dependent kinases (palbociclib) was used. Cellular models of melanoma, lung adenocarcinoma (A549), hepatoma (Huh7) and neuroblastoma (SH-SY5Y) were used. Tvs1G consistently produced a senolytic effect in all the cancerous cell lines tested independently of the stimulus for achieving cellular senescence (Figure 2, Figures 4F, 4G, 4H). […]

For experiment [2], the system named is senescent HGPS skin fibroblast. As to the kind of experiment: Senolysis in HGPS skin fibroblasts (viability, β-galactosidase staining). Conditions: 48h. The procedure: All human cancer cell lines and the non-transformed fibroblast lines were maintained in a humidified incubator at 37°C and 5% CO2 and used between passages 4 and 15. All lines were frequently checked and ensured to be mycoplasma free. Cells were split twice a week and before archiving an 90% confluency. SKMel103, SH-SY5Y, Huh7, A549, U251 were donated from collaborators or obtained from the Translational Venomics' stock. Primary lung fibroblasts (PCS201013) and primary dermal fibroblasts (PCS201012) were purchased from ATCC (Manassas, VA, USA). Skin fibroblasts from Hutchinson-Gilford progeria syndrome donors were purchase from the Progeria Research Foundation (HGADFN 127, 143, 167, 178) or Coriell Institute (AG01972E, AG06917K and AG11513F). The cells were maintained following the recommendations of the cell banks.
Cells were plated in 96 well plates at a density of 3×10^3-8×10^3 cells/well (proliferative) or 8×10^3-10×10^3 cells/well (senescent). An MTT assay (Sigma-Aldrich, Merck KGaA, Darmstadt, Germany) was used to measure cell viability after 48-96 h of treatments. […] Absorbance was measured at 570 nm using a microplate reader (Victor Nivo; Perkin Elmer, Hamburg, Germany). For these assays, the effects of vehicle or treatments were expressed as the % of change of the non-treated cells. […]

The next experiment concerns SKMel-103 cells. As to the kind of experiment: MTT cell viability assay in proliferative and palbociclib-induced senescent SKMel-103 cells. The procedure:
as §1
Therefore, the MTT assay was used to measure cell viability in proliferative and senescent cells. The model of cellular senescence induced by cyclin-dependent kinases (CDK) inhibition with Palbociclib (Baughn, L. B., et al. A Novel Orally Active Small Molecule Potently Induces G1 Arrest in Primary Myeloma Cells and Prevents Tumor Growth by Specific Inhibition of Cyclin-Dependent Kinase 4/6. Cancer Research (2006), 66(15), 7661-7667; Fry, D. W. et al. Specific inhibition of cyclin-dependent kinase 4/6 by PD 0332991 and associated antitumor activity in human tumor xenografts. Molecular Cancer Therapeutics, (2004) 3(11), 1427-1438) was used. Palbociclib is a CDK inhibitor, which promotes many markers of cellular senescence (Klein, M. E., et al. CDK4/6 Inhibitors: The Mechanism of Action May Not Be as Simple as Once Thought. Cancer Cell, (2018) 34(1), 9-20; Llanos, S., et al. Lysosomal trapping of palbociclib and its functional implications. Oncogene, (2019) 38(20), 3886-3902), including an enlarged and flattened cell shape and an enhanced senescence-associated β-galactosidase (SA-β-gal) activity (Figure 1A). Treatment with increasing concentrations of Tvs1 (0.1 nM to 3 µM) led to a dose-dependent reduction in viability of SKMel103 cells (Figure 1B). […]

For `O=c1c(O)c(-c2ccc(O)c(O)c2)oc2cc(O)ccc12` [F, fisetin], the senolytic effect result in experiment [1] was “failed”.
For the compound `O=c1c(O)c(-c2ccc(O)c(O)c2)oc2cc(O)cc(O)c12` [Q, quercetin], the senolytic effect entry in experiment [1] is “failed”.
Take `C[C@H]1O[C@@H](O[C@H]2[C@@H](O)C[C@H](O[C@H]3[C@@H](O)C[C@H](O[C@H]4CC[C@@]5(C)[C@H](CC[C@@H]6[C@@H]5C[C@@H](O)[C@]5(C)[C@@H](C7=CC(=O)OC7)CC[C@]65O)C4)O[C@@H]3C)O[C@@H]2C)C[C@H](O)[C@@H]1O` [digoxin]: the senolysis / viability result in experiment [2] is given as “failed”. Besides, the senolytic effect entry in the experiment on SKMel-103 cells (tested senescent melanoma cells) is recorded as “not effective”.
In the case of `CC1(C)CCC(c2ccc(Cl)cc2)=C(CN2CCN(c3ccc(C(=O)NS(=O)(=O)c4ccc(N[C@H](CCN5CCOCC5)CSc5ccccc5)c(S(=O)(=O)C(F)(F)F)c4)cc3)CC2)C1` [navitoclax], the senolysis / viability result in experiment [2] is listed as “failed”. Also, in the experiment with SKMel-103 cells (Homo sapiens, SK-MEL-103, palbociclib-induced senescent SKMel-103 cells, 48h treatment, read-out: EC50 (senolytic potency)), the pEC50 was 6.40. Besides, the SI with SKMel-103 cells (senolytic index, ratio of the IC50 in proliferative and senescent cells) was determined as 22.
